Measured values reported in ChEMBL document CHEMBL1201862, “PubChem BioAssay data set” (2004).
Activity calls are given as the source filed them.

What was measured:
Hexokinase-1 = target: T1, Hexokinase-1 (Homo sapiens, UniProt P19367); assay: hexokinase 1 activity inhibitors, potency – biochemical, set 2, resazurin fluorescence coupled readout, selectivity assay for HKDC1 inhibitor project, SAR follow-up (AID 588356); type: functional
T1 sequence (P19367 whole entry): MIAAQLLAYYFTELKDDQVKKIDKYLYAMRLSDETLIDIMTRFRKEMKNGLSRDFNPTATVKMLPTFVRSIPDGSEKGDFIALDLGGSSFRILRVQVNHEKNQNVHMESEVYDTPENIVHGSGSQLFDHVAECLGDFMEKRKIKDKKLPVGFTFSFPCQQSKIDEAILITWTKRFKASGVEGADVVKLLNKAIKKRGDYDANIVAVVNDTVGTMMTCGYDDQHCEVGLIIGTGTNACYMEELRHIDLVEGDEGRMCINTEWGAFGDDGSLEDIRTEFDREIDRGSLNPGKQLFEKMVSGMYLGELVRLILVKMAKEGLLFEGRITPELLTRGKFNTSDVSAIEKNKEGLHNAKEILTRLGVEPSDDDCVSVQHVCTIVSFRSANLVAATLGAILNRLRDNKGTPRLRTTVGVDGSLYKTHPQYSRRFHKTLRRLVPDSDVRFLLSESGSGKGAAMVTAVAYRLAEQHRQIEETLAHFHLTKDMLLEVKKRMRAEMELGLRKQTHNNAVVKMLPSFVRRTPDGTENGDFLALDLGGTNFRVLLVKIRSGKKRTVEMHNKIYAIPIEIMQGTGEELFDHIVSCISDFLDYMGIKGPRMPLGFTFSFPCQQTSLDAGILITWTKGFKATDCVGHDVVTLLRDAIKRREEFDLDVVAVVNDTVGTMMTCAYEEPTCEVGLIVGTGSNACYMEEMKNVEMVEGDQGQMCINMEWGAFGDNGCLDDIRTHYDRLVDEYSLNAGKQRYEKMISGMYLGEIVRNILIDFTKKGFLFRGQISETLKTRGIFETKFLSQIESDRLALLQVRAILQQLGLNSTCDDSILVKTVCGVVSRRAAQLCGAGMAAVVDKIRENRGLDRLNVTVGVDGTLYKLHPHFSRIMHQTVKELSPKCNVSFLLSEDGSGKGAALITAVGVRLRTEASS

Hexokinase HKDC1 [1] = target: T2, Hexokinase HKDC1 (Homo sapiens, UniProt Q2TB90); assay: inhibition of HKDC1 glucose phosphorylation – biochemical, W721R variant, dose response (AID 504729); type: functional
T2 sequence (Q2TB90 whole entry): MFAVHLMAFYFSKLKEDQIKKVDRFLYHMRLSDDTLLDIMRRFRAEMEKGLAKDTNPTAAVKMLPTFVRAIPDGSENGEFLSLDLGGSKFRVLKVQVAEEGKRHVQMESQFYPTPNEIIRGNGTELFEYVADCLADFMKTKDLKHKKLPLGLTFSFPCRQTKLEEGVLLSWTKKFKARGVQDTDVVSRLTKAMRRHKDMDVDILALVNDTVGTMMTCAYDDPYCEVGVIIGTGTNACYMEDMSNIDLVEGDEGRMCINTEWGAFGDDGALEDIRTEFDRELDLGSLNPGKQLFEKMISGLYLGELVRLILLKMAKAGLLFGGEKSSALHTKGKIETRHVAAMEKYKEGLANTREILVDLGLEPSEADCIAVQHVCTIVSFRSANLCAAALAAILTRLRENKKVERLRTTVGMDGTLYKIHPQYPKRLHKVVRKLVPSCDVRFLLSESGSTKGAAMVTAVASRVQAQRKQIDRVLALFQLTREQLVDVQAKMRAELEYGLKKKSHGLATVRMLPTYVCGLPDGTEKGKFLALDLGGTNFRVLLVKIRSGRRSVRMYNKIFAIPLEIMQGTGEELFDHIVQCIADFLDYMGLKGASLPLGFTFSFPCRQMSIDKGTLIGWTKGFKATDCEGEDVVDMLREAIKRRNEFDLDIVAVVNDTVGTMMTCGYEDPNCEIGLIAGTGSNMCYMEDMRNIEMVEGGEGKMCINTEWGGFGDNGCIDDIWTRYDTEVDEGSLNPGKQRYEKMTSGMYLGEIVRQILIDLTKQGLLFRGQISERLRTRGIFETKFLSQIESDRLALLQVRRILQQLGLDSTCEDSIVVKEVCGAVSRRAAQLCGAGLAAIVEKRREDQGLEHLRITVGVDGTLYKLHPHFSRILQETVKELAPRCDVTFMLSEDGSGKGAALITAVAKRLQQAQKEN

[2] = target: Cystic fibrosis transmembrane conductance regulator/Golgi-associated PDZ and coiled-coil motif-containing protein (Homo sapiens, UniProt P13569+Q9HD26); assay: potency against CAL PDZ-peptide interaction – biochemical, fluorescence polarization, Cerulean-tagged CAL PDZ, cherry-picks, dose response (AID 504773)
Chain of Cystic fibrosis transmembrane conductance regulator/Golgi-associated PDZ and coiled-coil motif-containing protein (P13569 whole entry, other chains not shown): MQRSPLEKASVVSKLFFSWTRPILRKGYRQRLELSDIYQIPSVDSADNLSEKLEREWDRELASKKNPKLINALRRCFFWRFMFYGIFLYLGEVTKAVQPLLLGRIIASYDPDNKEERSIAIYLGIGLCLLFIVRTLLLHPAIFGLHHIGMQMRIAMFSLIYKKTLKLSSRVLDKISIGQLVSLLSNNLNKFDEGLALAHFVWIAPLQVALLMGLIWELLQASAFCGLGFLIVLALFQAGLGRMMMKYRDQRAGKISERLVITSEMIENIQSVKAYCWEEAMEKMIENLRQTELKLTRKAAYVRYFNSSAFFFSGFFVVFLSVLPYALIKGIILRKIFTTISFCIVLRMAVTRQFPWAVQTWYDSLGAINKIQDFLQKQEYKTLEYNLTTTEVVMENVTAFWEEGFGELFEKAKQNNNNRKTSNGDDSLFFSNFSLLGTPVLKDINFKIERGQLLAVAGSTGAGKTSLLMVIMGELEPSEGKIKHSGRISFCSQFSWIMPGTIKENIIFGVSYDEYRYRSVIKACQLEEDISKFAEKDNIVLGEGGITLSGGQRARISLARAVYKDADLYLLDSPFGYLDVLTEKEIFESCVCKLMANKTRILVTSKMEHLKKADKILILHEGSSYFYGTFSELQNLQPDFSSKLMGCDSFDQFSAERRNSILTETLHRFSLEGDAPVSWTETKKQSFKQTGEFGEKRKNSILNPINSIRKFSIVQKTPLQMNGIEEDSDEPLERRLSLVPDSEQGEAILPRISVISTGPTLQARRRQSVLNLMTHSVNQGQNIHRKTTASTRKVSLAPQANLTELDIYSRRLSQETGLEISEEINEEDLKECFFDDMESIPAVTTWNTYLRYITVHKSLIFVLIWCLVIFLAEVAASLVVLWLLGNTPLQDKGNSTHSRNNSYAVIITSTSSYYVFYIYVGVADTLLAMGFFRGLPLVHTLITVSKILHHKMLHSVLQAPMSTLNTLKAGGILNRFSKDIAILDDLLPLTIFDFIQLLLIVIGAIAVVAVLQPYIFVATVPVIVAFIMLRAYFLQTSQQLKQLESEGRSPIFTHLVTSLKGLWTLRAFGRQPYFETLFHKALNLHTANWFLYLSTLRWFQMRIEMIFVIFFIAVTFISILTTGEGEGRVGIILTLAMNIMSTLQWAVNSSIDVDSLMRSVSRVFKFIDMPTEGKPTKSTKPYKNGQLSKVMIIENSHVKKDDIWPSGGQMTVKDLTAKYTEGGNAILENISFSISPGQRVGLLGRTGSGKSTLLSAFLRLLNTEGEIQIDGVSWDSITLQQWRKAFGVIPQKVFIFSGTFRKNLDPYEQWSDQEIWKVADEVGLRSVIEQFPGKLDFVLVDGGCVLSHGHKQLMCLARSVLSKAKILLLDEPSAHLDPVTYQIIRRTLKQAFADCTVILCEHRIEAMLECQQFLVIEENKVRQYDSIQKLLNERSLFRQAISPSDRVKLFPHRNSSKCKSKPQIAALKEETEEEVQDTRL

[3] = target: T3, Replicative DNA helicase DnaB (Mycobacterium tuberculosis, UniProt P9WMR3); assay: DnaB intein splicing inhibitors, dose response, biochemical, cell-free fluorescence (AID 449749); type: functional
T3 sequence (P9WMR3 whole entry): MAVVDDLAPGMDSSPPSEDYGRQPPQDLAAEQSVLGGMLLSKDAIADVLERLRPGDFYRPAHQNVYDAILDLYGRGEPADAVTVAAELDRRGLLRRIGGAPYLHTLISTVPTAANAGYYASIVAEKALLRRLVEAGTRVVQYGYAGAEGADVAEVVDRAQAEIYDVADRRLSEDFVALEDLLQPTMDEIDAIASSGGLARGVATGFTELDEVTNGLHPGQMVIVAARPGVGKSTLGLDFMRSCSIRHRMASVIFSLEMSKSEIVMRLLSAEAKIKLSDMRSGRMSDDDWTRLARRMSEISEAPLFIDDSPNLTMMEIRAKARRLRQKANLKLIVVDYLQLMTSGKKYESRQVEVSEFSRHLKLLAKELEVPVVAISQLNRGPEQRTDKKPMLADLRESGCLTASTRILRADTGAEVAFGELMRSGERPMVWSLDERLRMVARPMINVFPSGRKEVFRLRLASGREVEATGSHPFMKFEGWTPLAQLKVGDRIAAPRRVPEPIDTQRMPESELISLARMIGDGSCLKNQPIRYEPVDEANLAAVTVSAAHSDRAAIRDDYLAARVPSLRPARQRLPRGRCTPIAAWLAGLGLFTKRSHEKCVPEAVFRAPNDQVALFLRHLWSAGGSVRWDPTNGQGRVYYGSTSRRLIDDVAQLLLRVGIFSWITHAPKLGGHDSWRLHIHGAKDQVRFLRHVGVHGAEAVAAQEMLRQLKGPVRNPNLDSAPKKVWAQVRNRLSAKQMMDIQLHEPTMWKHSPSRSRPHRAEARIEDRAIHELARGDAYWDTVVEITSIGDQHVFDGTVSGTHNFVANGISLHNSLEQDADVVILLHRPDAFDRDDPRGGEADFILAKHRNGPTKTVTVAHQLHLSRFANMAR

Hexokinase HKDC1 [4] = target: T2, Hexokinase HKDC1; assay: analog inhibition of human HKDC1 activity – biochemical, set 2, SAR follow-up (AID 588355); type: functional
Protein RecA = target: T4, Protein RecA (Mycobacterium tuberculosis, UniProt P9WHJ3); assay: Fluorescence Cell-Free Homogeneous Dose Retest to Identify Inhibitors of RecA-Intein Splicing Activity. [Related pubchem assays (depositor defined):AID2097, AID2223, AID489010, AID492950]; type: functional
T4 sequence (P9WHJ3 whole entry): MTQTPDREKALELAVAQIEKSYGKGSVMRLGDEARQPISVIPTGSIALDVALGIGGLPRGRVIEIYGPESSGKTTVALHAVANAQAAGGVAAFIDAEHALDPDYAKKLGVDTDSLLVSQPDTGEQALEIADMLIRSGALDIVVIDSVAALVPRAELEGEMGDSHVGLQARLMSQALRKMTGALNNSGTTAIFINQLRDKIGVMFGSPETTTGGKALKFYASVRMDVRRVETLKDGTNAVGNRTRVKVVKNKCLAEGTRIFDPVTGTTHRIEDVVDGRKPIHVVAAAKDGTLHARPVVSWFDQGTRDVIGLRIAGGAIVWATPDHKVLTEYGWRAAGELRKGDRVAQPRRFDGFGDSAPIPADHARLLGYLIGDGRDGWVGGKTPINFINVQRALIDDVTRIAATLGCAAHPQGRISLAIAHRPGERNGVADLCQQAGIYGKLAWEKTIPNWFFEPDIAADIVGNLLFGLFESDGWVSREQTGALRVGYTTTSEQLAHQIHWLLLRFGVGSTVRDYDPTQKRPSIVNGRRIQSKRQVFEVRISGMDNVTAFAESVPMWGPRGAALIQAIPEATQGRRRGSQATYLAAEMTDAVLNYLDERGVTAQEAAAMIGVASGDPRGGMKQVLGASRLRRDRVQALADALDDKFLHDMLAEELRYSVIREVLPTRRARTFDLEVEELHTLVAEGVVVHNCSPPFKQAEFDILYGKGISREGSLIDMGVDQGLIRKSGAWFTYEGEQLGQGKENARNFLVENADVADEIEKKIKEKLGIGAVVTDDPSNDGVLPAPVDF

[5] = viability of HCT116 lacking mutant beta-catenin – cell-based, human colon tumor, dose response (AID 1045); type: functional;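 note: HCT116 colon tumor cells with beta catenin knocked out; cells exposed to compound for 60 hours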
[6] = target: T5, Microphthalmia-associated transcription factor (Homo sapiens, UniProt O75030); assay: reducers of TRPM1 reporter luminescence, concentration series – cell-based, SK-MEL-5, cherry-picked, set 3, MITF inhibitor project, dose response (AID 493073); type: functional;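 note: SK-MEL-5 melanoma cells with luciferase driven by the MITF target TRPM1 promoter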
T5 sequence (O75030 whole entry): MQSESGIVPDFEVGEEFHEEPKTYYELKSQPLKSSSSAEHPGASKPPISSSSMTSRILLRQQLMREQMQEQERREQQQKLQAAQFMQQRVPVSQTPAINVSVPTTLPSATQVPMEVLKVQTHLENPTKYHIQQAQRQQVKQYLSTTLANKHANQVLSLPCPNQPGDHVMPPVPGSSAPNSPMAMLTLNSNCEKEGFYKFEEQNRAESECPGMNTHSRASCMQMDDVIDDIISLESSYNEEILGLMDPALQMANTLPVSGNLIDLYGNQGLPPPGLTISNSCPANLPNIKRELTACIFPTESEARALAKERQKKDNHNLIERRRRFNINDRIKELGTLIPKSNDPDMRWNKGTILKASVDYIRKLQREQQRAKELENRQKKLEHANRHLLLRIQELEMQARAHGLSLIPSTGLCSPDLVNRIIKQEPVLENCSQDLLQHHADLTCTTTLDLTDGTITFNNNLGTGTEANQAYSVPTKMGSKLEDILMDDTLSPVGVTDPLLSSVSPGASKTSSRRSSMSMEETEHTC

[7] = viability of PTEN-deleted HCT116 cells – cell-based, HCT116 PTEN knockout, dose response (AID 1047); type: functional;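 note: HCT116 colon tumor cells with PTEN knocked out; cells exposed to compound for 60 hours before readout; potency for loss of cell viability measured by luminescence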
A-375 = assay: proliferation inhibition in MITF-low A375 cells – cell-based, cherry-pick samples, set 2, counter-screen for MITF modulator project, dose response (AID 540335); type: functional; details: Homo sapiens
[8] = microbe, parasite or virus in culture; type: functional; details: Mycobacterium tuberculosis
INS1 = assay: INS-1E survival protection against cytokine death – cell-based, luminescence, retest, dose response (AID 449756); type: functional; details: Rattus norvegicus;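 note: cell death triggered by IL-1 beta plus TNF-alpha plus IFN-gamma mixture; protective hits raise ATP signal compared with cytokine alone wells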
[9] = NIH-3T3 fibroblast cytotoxicity, dose response, cytotoxicity control, cell-based, fluorescence, Alamar Blue, secondary assay (AID 2327); type: functional;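 note: NIH-3T3 mouse fibroblasts cultured with fluconazole at 8 µg/mL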
[10] = Luminescence-based cell-based high throughput dose response assay to identify activators of the DAF-12 from the parasite S. stercoralis (ssDAF-12).; type: functional
[11] = fluconazole-exposed Candida albicans growth modulators – fluorescence, retest, confirmation (AID 2467); type: functional, cell-based
[12] = target: ATP-dependent molecular chaperone HSP82 (Candida albicans (strain WO-1) (Yeast), UniProt C4YTQ8); assay: steroid-induced GRE reporter decrease in yeast – S. cerevisiae, luminescence, Hsp90 inhibitor project, dose response (AID 2400); type: functional, cell-based;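 note: beta-galactosidase luminescence from glucocorticoid response element reporter as proxy for Hsp90 function; inhibitor potency where signal loss means Hsp90 inhibition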
Chain of ATP-dependent molecular chaperone HSP82 (C4YTQ8 whole entry, the tested form may be a part): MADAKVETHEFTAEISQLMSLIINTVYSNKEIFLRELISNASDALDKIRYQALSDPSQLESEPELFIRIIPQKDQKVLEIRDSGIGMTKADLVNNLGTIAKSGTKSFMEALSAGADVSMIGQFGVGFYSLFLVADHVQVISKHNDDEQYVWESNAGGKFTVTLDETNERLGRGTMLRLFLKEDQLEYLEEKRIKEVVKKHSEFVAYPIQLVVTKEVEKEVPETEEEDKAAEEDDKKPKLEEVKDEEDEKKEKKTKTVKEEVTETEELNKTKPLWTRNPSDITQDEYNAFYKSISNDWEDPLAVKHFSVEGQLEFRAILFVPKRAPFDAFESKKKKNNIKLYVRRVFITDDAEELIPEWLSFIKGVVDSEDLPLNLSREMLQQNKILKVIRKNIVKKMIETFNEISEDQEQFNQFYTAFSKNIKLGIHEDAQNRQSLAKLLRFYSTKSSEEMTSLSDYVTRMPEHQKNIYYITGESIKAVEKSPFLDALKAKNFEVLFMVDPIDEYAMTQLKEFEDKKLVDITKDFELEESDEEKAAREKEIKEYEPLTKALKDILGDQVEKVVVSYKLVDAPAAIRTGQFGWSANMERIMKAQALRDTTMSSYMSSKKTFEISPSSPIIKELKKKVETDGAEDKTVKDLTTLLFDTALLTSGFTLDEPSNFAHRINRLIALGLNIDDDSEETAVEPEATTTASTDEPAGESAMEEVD

[13] = target: T6, Oxysterols receptor LXR-beta (Homo sapiens, UniProt P55055); type: functional, cell-based;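 note: Cell-based luminescence dose-response assay of agonist activity at LXR, run as a confirmatory counterscreen to a daf-12 agonist screen; HEK293 cells with Gal4-LXR fusion and GAL4-driven luciferase reporter; agonist potency from rising luciferase signal of a Gal4-LXR reporter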
T6 sequence (P55055 whole entry): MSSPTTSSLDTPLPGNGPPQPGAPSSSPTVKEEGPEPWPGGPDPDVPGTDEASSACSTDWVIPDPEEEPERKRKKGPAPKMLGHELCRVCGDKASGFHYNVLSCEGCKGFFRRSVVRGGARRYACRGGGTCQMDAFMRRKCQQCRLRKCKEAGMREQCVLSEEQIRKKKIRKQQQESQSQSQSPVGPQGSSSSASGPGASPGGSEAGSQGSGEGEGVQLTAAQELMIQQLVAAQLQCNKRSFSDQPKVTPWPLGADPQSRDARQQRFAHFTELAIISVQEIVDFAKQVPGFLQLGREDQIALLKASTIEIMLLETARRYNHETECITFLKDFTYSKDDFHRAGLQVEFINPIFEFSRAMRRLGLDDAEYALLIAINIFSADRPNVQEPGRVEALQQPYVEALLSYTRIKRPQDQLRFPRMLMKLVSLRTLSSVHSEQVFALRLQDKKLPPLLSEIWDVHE

[14] = target: Serine/threonine-protein phosphatase (Candida dubliniensis (strain CD36 / CBS 7987 / NCPF 3949 / NRRLY-17841) (Yeast), UniProt B9W6M3); assay: blockers of CaCl2-induced CDRE-lacZ signaling – S. cerevisiae, luminescence, secondary, dose response (AID 2388); type: functional, cell-based;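 note: yeast reporter cells carrying a calcineurin-responsive lacZ construct stimulated with calcium chloride; luminescent beta-galactosidase reporter signal in whole cells rather than isolated phosphatase activity; potency for inhibition where a drop in reporter signal means calcineurin blockade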
Chain of Serine/threonine-protein phosphatase (B9W6M3 whole entry): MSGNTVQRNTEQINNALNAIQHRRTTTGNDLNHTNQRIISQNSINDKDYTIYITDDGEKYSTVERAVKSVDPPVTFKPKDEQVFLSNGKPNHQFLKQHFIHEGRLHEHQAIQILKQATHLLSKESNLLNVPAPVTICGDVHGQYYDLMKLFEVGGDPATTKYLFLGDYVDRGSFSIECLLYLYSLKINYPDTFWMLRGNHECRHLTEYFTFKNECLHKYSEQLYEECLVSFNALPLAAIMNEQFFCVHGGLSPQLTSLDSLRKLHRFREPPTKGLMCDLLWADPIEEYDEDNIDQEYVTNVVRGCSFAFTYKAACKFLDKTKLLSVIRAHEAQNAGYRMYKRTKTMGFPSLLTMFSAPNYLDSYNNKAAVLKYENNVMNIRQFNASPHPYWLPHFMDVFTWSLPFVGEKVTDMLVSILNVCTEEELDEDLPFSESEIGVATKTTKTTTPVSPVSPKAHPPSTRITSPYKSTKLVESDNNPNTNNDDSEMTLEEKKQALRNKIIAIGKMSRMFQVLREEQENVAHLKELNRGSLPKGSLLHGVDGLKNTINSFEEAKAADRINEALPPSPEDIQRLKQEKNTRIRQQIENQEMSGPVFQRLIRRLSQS

[15] = target: Nuclear receptor subfamily 0 group B member 1 (Homo sapiens, UniProt P51843); assay: Luminescence-based cell-based high throughput dose response assay for inhibitors of the orphan nuclear receptor subfamily 0, group B, member 1 (DAX1; NR0B1). [Related pubchem assays (depositor defined):AID504766, AID504790]; type: functional
Chain of Nuclear receptor subfamily 0 group B member 1 (P51843 whole entry): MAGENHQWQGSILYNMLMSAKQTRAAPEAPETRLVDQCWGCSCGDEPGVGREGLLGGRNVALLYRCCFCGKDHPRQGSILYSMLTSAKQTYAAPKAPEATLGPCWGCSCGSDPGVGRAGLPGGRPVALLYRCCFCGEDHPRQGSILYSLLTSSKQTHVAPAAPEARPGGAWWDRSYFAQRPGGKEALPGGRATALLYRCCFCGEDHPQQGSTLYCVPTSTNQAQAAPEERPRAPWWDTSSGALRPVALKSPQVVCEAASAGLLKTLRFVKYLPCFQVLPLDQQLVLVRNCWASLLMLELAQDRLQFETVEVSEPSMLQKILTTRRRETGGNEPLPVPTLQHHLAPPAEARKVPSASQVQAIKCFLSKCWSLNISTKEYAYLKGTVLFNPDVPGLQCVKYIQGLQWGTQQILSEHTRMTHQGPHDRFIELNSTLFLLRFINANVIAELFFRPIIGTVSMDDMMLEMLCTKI

HEK293 = assay: cells; type: functional, cell-based; details: Homo sapiens

CCOc1ccc2c(c1)C(NC(C)=O)C(=O)N2CCN1CCOCC1 (stereo unspecified)
active: IC50 (Hexokinase HKDC1 [1]) 6.63 µM | AC50 [2] 27.3 µM | AC50 [3] 27.8 µM | IC50 (Hexokinase HKDC1 [4]) 8.44 µM | EC50 (Protein RecA) 12.6 µM
inactive: IC50 (Hexokinase-1) > 80 µM

CC1CCC(C(C)C)C(OC(=O)Cn2c(-c3ccc(F)cc3)[n+](C)c3ccccc32)C1 (stereo unspecified)
active: EC50 [5] 4.18 µM | AC50 [6] 5.57 µM | EC50 [7] 4.98 µM | AC50 (A-375) 47.2 µM | CC50 [8] 40 µM | AC50 (INS1) 3.69 µM

CN1/C(=C/C(=O)c2cccs2)Sc2ccccc21
active: EC50 [9] 14.7 µM | EC50 [11] 2.02 µM
inactive: IC50 [10] > 67.5 µM | EC50 (cells) > 67.5 µM | EC50 [12] > 150 µM | EC50 [13] > 67.5 µM | EC50 [14] > 180 µM

O=C(c1ccc(Br)cc1)c1coc2ccc(O)cc12
inactive: IC50 [15] > 67.5 µM | IC50 (HEK293) > 67.5 µM
